Measured values: PubChem BioAssay (NCI)
Values joined by “and” are separate entries in the source; they are usually repeats but may differ in a detail not shown here. Equal entries are not always repeated.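 Where inhibition never reached the appropriate level, the endpoint shown equals the highest concentration tested. Otherwise, values were interpolated linearly from a five-concentration, 48-hour dose response in 96-well plates. At the GI50, growth is halved. TGI: concentration producing complete growth inhibition.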

What was measured:
Assay in all cases: DTP human tumour cell line panel, 48 h
[1] = system: ACHN renal
[2] = system: SK-MEL-2 melanoma
[3] = system: SK-OV-3 ovarian
[4] = system: RPMI-8226 leukemia
[5] = system: MDA-MB-435
[6] = system: DU-145 prostate
[7] = system: A549 NSCLC
[8] = system: HCT-15 colon
[9] = system: U251 CNS
[10] = system: A498 renal

Row | SMILES | GI50 [1] [µM] | TGI [1] | GI50 [2] [µM] | TGI [2] | GI50 [3] [µM] | TGI [3] | GI50 [4] [µM] | TGI [4] | GI50 [5] [µM] | TGI [5] | GI50 [6] [µM] | TGI [6] | GI50 [7] [µM] | TGI [7] | GI50 [8] [µM] | TGI [8] | GI50 [9] [µM] | TGI [9] | GI50 [10] [µM] | TGI [10]
1 | CCOC(=O)C#Cc1c(C(=O)OCC)nnn1[C@@H]1O[C@H](COC)[C@@H](OC)[C@H]1OC | 1.95 | 3.9 µM | 16.6 | 32.9 µM | 67.5 | > 100 µM | 4.16 | 17.2 µM | 12.1 | 24.5 µM | 10.6 | 22.4 µM | 20.9 | 40.4 µM | 2.56 | 6.66 µM | 17 | 31.3 µM | 18.2 | 32.9 µM
2 | Cn1cc(-c2ccc3c(c2)ncn3-c2cc(NS(=O)(=O)C3CC3)cc(-c3ccc(F)cc3F)c2)cn1 | 5 | 66.9 µM | 25.7 | 61.5 µM | 10.2 | > 100 µM | 3.97 | 32.2 µM | 21.9 | > 100 µM | 21.2 | > 100 µM | 9.01 | > 100 µM | 7.4 | > 100 µM | 3.77 | > 100 µM | 0.074 | 0.542 µM
3 | O=C(NO)c1ccc(CNc2cccc3nc(C4CC4)n(-c4ccccc4)c(=O)c23)cc1 | 1.92 | 4.67 µM | 2.76 | 7.45 µM | 2.15 | 5.4 µM | 2.69 | 11.3 µM | 1.86 | 3.91 µM | 2.52 | 13.7 µM | 2.23 | 5.74 µM | 1.98 | 6.33 µM | 1.63 | 3.23 µM | 1.87 | 4.03 µM
4 | Cc1ccc(-c2nc([P+](c3ccccc3)(c3ccccc3)c3ccccc3)c(N3CCOCC3)o2)cc1 | 2.32 | 7.53 µM | 0.559 | 2.76 µM | 0.381 | 4.32 µM | 0.251 | 1.16 µM | 0.351 | 1.81 µM | 0.472 | 10.9 µM | 0.5 | 14 µM | 3.09 | 12.1 µM | 0.313 | 11.9 µM | 0.881 | 4.5 µM
5 | CCCCCCCCCCCCOC1C(C(COC2OC(C(O)CO)C3OC(C)(C)OC23)OC(=O)Nc2ccccc2)OC2OC(C)(C)OC21 (stereo not given) | 4.82 | 16.3 µM | 16.3 | 32.4 µM | 15.6 | 30 µM | 3.93 | 15.2 µM | 7.72 | 21.6 µM | 10 | 22.8 µM | 6.08 | 20.6 µM | 4.5 | 16.1 µM | 5.44 | 18 µM | 12.4 | 25.1 µM
6 | N=C(N)SCc1ccc(Cl)c2ccccc12 (tested in a mixture with another compound) | – | 25.1 µM and 25.8 µM | – | 21.7 µM and 25.1 µM | – | 25.9 µM and 28.9 µM | – | 18.5 µM and 7.98 µM | – | 21.5 µM and 22.2 µM | – | 27.7 µM and 25.9 µM | – | 31.3 µM and 35.5 µM | – | 32.8 µM and 36.8 µM | – | 25.7 µM and 23.6 µM | – | 22.5 µM and 23.2 µM
7 | O=C1[C@H](Cc2ccc(O)cc2)N2C(=O)CCN(C(=O)NCc3ccccc3)[C@H]2CN1Cc1cccc2ccccc12 | 4.73 | 57.7 µM | 2.64 | 9.18 µM | 2.74 | 8.14 µM | 3.66 | 23.1 µM | 3.96 | 21.4 µM | 4.55 | 46.5 µM | 2.66 | > 50.6 µM | 15.5 | > 89.8 µM | 0.985 | 18.6 µM | 1.38 | 6.75 µM
8 | Nc1cc(C(F)(F)F)c(-c2nc(N3CCOCC3)nc(N3CCOCC3)n2)cn1 | 0.403 | > 100 µM | 0.618 | 8.68 µM | 0.131 | 0.598 µM | 0.709 | > 75.9 µM | 0.398 | 5.15 µM | 0.475 | > 100 µM | 0.416 | 8.62 µM | 0.318 | > 56.1 µM | 1.22 | 44.2 µM | 0.14 | 0.45 µM
9 | CC1=C(C(=O)Nc2ccc3[nH]ncc3c2)C(c2ccc(F)cc2)N=C(c2ccc(C(F)(F)F)nc2)N1 (stereo not given) | 13.3 | > 25 µM | 9.49 | > 25 µM | > 25 | > 25 µM | 20 | > 25 µM | 4.97 | 12 µM | > 25 | > 25 µM | 13.4 | > 25 µM | 16.2 | > 25 µM | 17.1 | > 25 µM | 2.23 | 9.32 µM
10 | COc1cc(/C=C/c2cc(/C=C/c3ccc(O)c(OC)c3)n(C(=O)Nc3ccc(C)cc3)n2)ccc1O | 0.396 | 7.42 µM | 0.681 | 3.97 µM | 0.451 | 1.79 µM | 0.261 | 1.34 µM | 0.115 | 0.391 µM | 0.448 | 2.32 µM | 0.419 | 4.6 µM | 0.384 | 5.27 µM | 0.422 | 3.48 µM | 1.43 | 4.87 µM
11 | CN1CCN(C(=O)/C=C/c2ccc([N+](=O)[O-])o2)CC1 | 3.29 | 13.1 µM | 6.5 | 29.6 µM | 29 | > 100 µM | 16 | 64.5 µM | 3.12 | 14.9 µM | 9.33 | 21.2 µM | 18.8 | 41.5 µM | 3.14 | 14.9 µM | 17.1 | 55.1 µM | 16.8 | 34.3 µM
12 | O=C(CC1(O)C(=O)Nc2c(Cl)cc(Cl)cc21)c1cccc([N+](=O)[O-])c1 (stereo not given) | – | > 54.6 µM | – | > 86.3 µM | – | > 100 µM | – | 58.2 µM | – | 16.3 µM | – | > 100 µM | – | 98.9 µM | – | > 100 µM | – | > 70.8 µM | – | 66.8 µM
